# Source: US20160274087A1, “SCREENING ASSAY FOR AGENTS THAT INFLUENCE BETA CELL NUMBER AND/OR PHENOTYPE” (VRIJE UNIVERSITEIT BRUSSEL, priority 2013, published 2016)
# Legend:
# rat beta cells = assay: Number of living beta cells in culture (Hoechst 33342/propidium iodide whole-well imaging counts; expansion assay); assay type: cell-based
# Description: Beta cells were FACS-purified from islet-cell enriched suspensions (Pipeleers et al., 1985) prepared from neonatal (2-3 days-old) and adolescent or adult (8 or 40-week-old, male) Wistar rats (Janvier Bioservices, France); their purity was, respectively 70-75% and over 90%. Sorted cells were counted in a hemocytometer, seeded (day 0) and cultured for up to 15 days in serum-free Ham's-F10 medium at 5, 10 or 20 mmol/l glucose, supplemented with 2 mmol/l L-glutamine, 50 μM 3-isobutyl-1-methylxanthine, 0.5% Albumax-I, penicillin (100 U/ml) and streptomycin (0.1 mg/ml). The 10 mmol/l glucose condition is known to maintain beta cell survival over 9-days (Ling et al., 1994; Ling and Pipeleers, 1994). Medium and cells were retrieved after selected culture periods and assayed for insulin content; data were expressed as a function of the number of living beta cells that was determined in parallel wells.
# On day 1, 9 and 15 of culture, total numbers of living beta cells per well were determined by semi-automatic cell count, after Hoechst 33342 (Ho) and propidium iodide (PI) staining. Numbers of living beta cells were obtained by subtracting the PI-positive cell numbers from the Ho-positive cell numbers, and correcting for the percent insulin-negative cells, as determined following insulin-immunofluorescence staining. They were expressed as percent of the numbers on day 1. Each condition was also evaluated for increases in the percentage of proliferating beta cells (incorporating the thymidine-analogue 5-ethynyl-2′-deoxyuridine, EdU; 100 μmol/l). To detect beta cells that underwent two successive cycles, cells were sequentially exposed to two different thymidine-analogs, first EdU from day 3 to 6, and then BrdU (100 μmol/l) from day 7 to 10, with a 24-hour label-free period in between. EdU-positive (EdU^+) nuclei were detected with the Click-iT Assay kit (Invitrogen), while BrdU-positive (BrdU^+) nuclei were identified with anti-BrdU antibody.
# Absolute number of cells was determined by whole-well imaging using the BD-PathwayBioimager855 (BD-Biosciences). IPLab and AttoVision software packages (BD-Biosciences) were used for image background subtraction, segmentation and quantification.
# Experimental procedures for isolation of beta cells from neonatal (2-3 days old) and adult (8 or 40 week old, male) Wistar rats (Janvier Bioservices, France) and analysis of their number, viability and proliferation activity in culture have been described before (Assefa et al., 2014). Sorted beta cells were seeded in 804G matrix-coated plates (designated as day 0) and the numbers and viability of seeded cells at the start of all experiments were determined on day 1 (24 h after seeding). The cells were cultured in control medium, which is a serum-free Ham's F10 medium supplemented with 2 mM L-glutamine, 50 μM 3-isobutyl-1-methylxanthine, 0.5% Albumax I, penicillin (100 U/ml), streptomycin (0.1 mg/ml) and, unless indicated otherwise, 10 mM glucose.
# Sorted beta cells were seeded in 384-well or 6-well plates coated with 804G matrix, and kept in culture for up to 15 days at 37° C. 5% CO2 using Ham F10 supplemented with 1 mM L-glutamine, 0.1 mg/ml streptomycin, 0.075 mg/ml penicillin, 50 μM of isobutyl-1-methylxanthine (IBMX) at 10 mM D-glucose with and without synthetic GCs (6 methyl-prednisolone (6MP), dexamethasone (DEX), GR-modulators (compound A (CPA), mifepristone (MIF), and NFκB inhibitors (JSH-23 en Bay11-7085). Total cell number and beta cell viability was evaluated after incubation with Hoechst 33342 and propidium iodide. All chemicals were from Sigma Life Sciences or Merck. Quantification of cell numbers and analysis of beta-cell viability was done using the Pathway Bioimager (BD Biosciences) and using IPlab and Attovision software for background subtraction as described prior (Assefa et al., 2014).
# INS1 832/13 cell line = assay: Proliferation of INS1 832/13 cell line in serum-free medium; assay type: cell-based; details: serum-free culture medium; data not shown
# [1] = molecular target: T1, glucocorticoid receptor (GR) (Homo sapiens, UniProt P04150); details: cited from earlier work
# T1 sequence (P04150 1-777): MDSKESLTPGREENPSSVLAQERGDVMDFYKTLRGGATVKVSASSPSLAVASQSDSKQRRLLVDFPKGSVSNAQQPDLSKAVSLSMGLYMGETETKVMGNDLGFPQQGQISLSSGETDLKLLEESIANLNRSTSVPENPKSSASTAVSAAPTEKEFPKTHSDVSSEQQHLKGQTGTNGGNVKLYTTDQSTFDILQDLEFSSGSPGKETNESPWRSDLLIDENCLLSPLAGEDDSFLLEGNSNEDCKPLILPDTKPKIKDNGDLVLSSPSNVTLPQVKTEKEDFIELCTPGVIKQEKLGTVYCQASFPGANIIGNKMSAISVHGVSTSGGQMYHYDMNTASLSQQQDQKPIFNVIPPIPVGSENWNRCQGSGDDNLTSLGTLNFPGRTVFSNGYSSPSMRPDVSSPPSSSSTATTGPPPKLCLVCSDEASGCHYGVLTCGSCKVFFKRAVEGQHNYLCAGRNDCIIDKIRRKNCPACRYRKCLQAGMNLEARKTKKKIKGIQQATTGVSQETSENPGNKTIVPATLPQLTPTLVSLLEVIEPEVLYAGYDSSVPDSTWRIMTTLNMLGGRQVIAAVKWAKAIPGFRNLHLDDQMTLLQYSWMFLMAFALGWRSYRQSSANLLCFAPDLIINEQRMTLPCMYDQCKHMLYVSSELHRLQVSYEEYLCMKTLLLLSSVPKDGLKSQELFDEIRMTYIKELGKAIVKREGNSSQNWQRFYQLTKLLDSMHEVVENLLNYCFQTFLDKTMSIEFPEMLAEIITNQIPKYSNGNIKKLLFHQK
smiles,measurement,setting,value
"C[C@]12CCC(=O)C=C1CC[C@@H]1[C@@H]2[C@@H](O)C[C@@]2(C)[C@H]1CC[C@]2(O)C(=O)CO [Hydrocortisone, hydrocortisone]",Number of Living Cells on Day 15 (% of Day 1),"rat beta cells; 9 days, HC, 6 days, control",168.1 ± 6.8 % of Day 1
same,Number of Living Cells on Day 15 (% of Day 1),"rat beta cells; 15 days, HC (Table 7), control 102.5 ± 6.1",173.9 ± 7.1 % of Day 1
same,Number of Living Cells on Day 15 (% of Day 1),"rat beta cells; HC alone, 15 days (Table 6)",156 ± 4 % of Day 1
same,Number of Living Cells on Day 15 (% of Day 1),"rat beta cells; HC, glucose 7.5 high-responsive cells, control 99.0 ± 1.5",182.0 ± 4.9 % of Day 1
same,Number of Living Cells on Day 15 (% of Day 1),"rat beta cells; HC, glucose 7.5 low-responsive cells, control 94.0 ± 9.2",117.3 ± 5.2 % of Day 1
same,Number of Living Cells on Day 15 (% of Day 1),"rat beta cells; HC, mixed beta cell population, control 110.7 ± 5.0",169.0 ± 9.3 % of Day 1
same,increase in absolute number of living beta cells in culture,rat beta cells; two-weeks culture,near population doubling
same,proliferation of INS1 832/13 cell line,INS1 832/13 cell line,does not induce the proliferation
same,Relative Potencies GR,[1],1
